Test results from patent publication US20080014186A1, “Hla-A24 or Hla-A2 Binding Peptides of Parathyroid Hormone-Related Protein” (GREEN PEPTIDE CO., LTD., priority 2004, published 2008).

Legend:
[1] = system: PBMCs of HLA-A2^+ healthy donors and prostate cancer patients; assay: Assay for peptide-specific CTLs in PBMCs (IFN-γ ELISA, peptide-pulsed T2 cells); type: cell-based, human; settings: for INF-γ production: T2 cells
[2] = system: IgG in plasma of HLA-A2^+ healthy donors and prostate cancer patients; assay: Peptide-specific IgG in plasma by ELISA (HLA-A2-binding PTHrP peptides); design: species or system human; settings: for IgG reactive to the peptide in plasma (difference of OD): 1:100-diluted plasma
Outline: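 Plasma from HLA-A2+ donors and prostate cancer patients incubated 2 h at 37 °C on peptide-coated plates (20 μg/well); bound IgG detected by rabbit anti-human IgG (γ-chain), then HRP anti-rabbit, TMB.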

[3] = HLA-A2^+ prostate cancer patients

TSTTSLELD [PTHrP 165-173, previously reported PTHrP peptide generating CTLs from HLA-A*0201 healthy donors [17], reference compound]
INF-γ production ([1]; HLA-A2^+ healthy donor #1 (A0201)): 0 pg/mL | INF-γ production ([1]; HLA-A2^+ healthy donor #2 (A0201)): 222 pg/mL | INF-γ production ([1]; HLA-A2^+ healthy donor #3 (A0201)): 0 pg/mL | INF-γ production ([1]; HLA-A2^+ healthy donor #4 (A0201)): 294 pg/mL | INF-γ production ([1]; HLA-A2^+ healthy donor #5 (A0206)): 0 pg/mL | INF-γ production ([1]; HLA-A2^+ healthy donor #6 (A0206)): 0 pg/mL | INF-γ production ([1]; HLA-A2^+ healthy donor #7 (A0206)): 27 pg/mL | INF-γ production ([1]; HLA-A2^+ healthy donor #8 (A0206)): 325 pg/mL | INF-γ production ([1]; HLA-A2^+ healthy donor #9 (A0206)): 395 pg/mL | INF-γ production ([1]; HLA-A2^+ healthy donor #10 (A0207)): 46 pg/mL | induced peptide-specific CTLs, number of donors ([1]; HLA-A2^+ healthy donors): 4 of 10 | Total (donors with significant peptide-specific IFN-γ production / donors tested) ([1]; HLA-A2^+ healthy donors, p < 0.05): 4/10 | INF-γ production ([1]; HLA-A2^+ prostate cancer patient #1 (A0206)): 202 pg/mL | INF-γ production ([1]; HLA-A2^+ prostate cancer patient #2 (A0210)): 26 pg/mL | INF-γ production ([1]; HLA-A2^+ prostate cancer patient #3 (A0210)): 60 pg/mL | INF-γ production ([1]; HLA-A2^+ prostate cancer patient #4 (A0206)): 151 pg/mL | INF-γ production ([1]; HLA-A2^+ prostate cancer patient #5 (A0206)): 103 pg/mL | INF-γ production ([1]; HLA-A2^+ prostate cancer patient #6 (A0207)): 0 pg/mL | INF-γ production ([1]; HLA-A2^+ prostate cancer patient #7 (A0206)): 0 pg/mL | INF-γ production ([1]; HLA-A2^+ prostate cancer patient #8 (A0206)): 80 pg/mL | INF-γ production ([1]; HLA-A2^+ prostate cancer patient #9 (A0201)): 0 pg/mL | INF-γ production ([1]; HLA-A2^+ prostate cancer patient #10 (A0201)): 24 pg/mL | induced peptide-specific CTLs (peptide-specific IFN-γ production), number of patients [1, 3]: 3 of 10 | Total (patients with significant peptide-specific IFN-γ production / patients tested) ([1]; HLA-A2^+ prostate cancer patients, p < 0.05): 3/10 | IgG reactive to the peptide in plasma (difference of OD) ([2]; HLA-A2^+ healthy donor #1): — (IgG reactive to a corresponding peptide was judged to be positive when a difference of OD in a 1:100-diluted plasma was more than 0.054.) | IgG reactive to the peptide in plasma (difference of OD) ([2]; HLA-A2^+ healthy donor #2): — (IgG reactive to a corresponding peptide was judged to be positive when a difference of OD in a 1:100-diluted plasma was more than 0.054.) | IgG reactive to the peptide in plasma (difference of OD) ([2]; HLA-A2^+ healthy donor #3): — (IgG reactive to a corresponding peptide was judged to be positive when a difference of OD in a 1:100-diluted plasma was more than 0.054.) | IgG reactive to the peptide in plasma (difference of OD) ([2]; HLA-A2^+ healthy donor #4): — (IgG reactive to a corresponding peptide was judged to be positive when a difference of OD in a 1:100-diluted plasma was more than 0.054.) | IgG reactive to the peptide in plasma (difference of OD) ([2]; HLA-A2^+ healthy donor #5): — (IgG reactive to a corresponding peptide was judged to be positive when a difference of OD in a 1:100-diluted plasma was more than 0.054.) | IgG reactive to the peptide in plasma (difference of OD) ([2]; HLA-A2^+ healthy donor #6): 0.0865 OD | IgG reactive to the peptide in plasma (difference of OD) ([2]; HLA-A2^+ healthy donor #7): 0.089 OD | IgG reactive to the peptide in plasma (difference of OD) ([2]; HLA-A2^+ healthy donor #8): 0.193 OD | IgG reactive to the peptide in plasma (difference of OD) ([2]; HLA-A2^+ healthy donor #9): 0.0925 OD | IgG reactive to the peptide in plasma (difference of OD) ([2]; HLA-A2^+ healthy donor #10): 0.099 OD | Total (IgG-positive donors / donors tested) ([2]; HLA-A2^+ healthy donors): 5/10 | IgG reactive to the peptide in plasma (difference of OD) ([2]; HLA-A2^+ prostate cancer patient #1): — (IgG reactive to a corresponding peptide was judged to be positive when a difference of OD in a 1:100-diluted plasma was more than 0.054.) | IgG reactive to the peptide in plasma (difference of OD) ([2]; HLA-A2^+ prostate cancer patient #2): — (IgG reactive to a corresponding peptide was judged to be positive when a difference of OD in a 1:100-diluted plasma was more than 0.054.) | IgG reactive to the peptide in plasma (difference of OD) ([2]; HLA-A2^+ prostate cancer patient #3): 0.078 OD | IgG reactive to the peptide in plasma (difference of OD) ([2]; HLA-A2^+ prostate cancer patient #4): — (IgG reactive to a corresponding peptide was judged to be positive when a difference of OD in a 1:100-diluted plasma was more than 0.054.) | IgG reactive to the peptide in plasma (difference of OD) ([2]; HLA-A2^+ prostate cancer patient #5): — (IgG reactive to a corresponding peptide was judged to be positive when a difference of OD in a 1:100-diluted plasma was more than 0.054.) | IgG reactive to the peptide in plasma (difference of OD) ([2]; HLA-A2^+ prostate cancer patient #6): — (IgG reactive to a corresponding peptide was judged to be positive when a difference of OD in a 1:100-diluted plasma was more than 0.054.) | IgG reactive to the peptide in plasma (difference of OD) ([2]; HLA-A2^+ prostate cancer patient #7): — (IgG reactive to a corresponding peptide was judged to be positive when a difference of OD in a 1:100-diluted plasma was more than 0.054.) | IgG reactive to the peptide in plasma (difference of OD) ([2]; HLA-A2^+ prostate cancer patient #8): — (IgG reactive to a corresponding peptide was judged to be positive when a difference of OD in a 1:100-diluted plasma was more than 0.054.) | IgG reactive to the peptide in plasma (difference of OD) ([2]; HLA-A2^+ prostate cancer patient #9): — (IgG reactive to a corresponding peptide was judged to be positive when a difference of OD in a 1:100-diluted plasma was more than 0.054.) | IgG reactive to the peptide in plasma (difference of OD) ([2]; HLA-A2^+ prostate cancer patient #10): 0.1515 OD | Total (IgG-positive patients / patients tested) [2, 3]: 2/10
